What was measured:
Assay in all cases: relative viability (nuclei count vs DMSO), 5 days (fraction); higher = more cells survive
[1] = compound: CN(c1ncccc1CNc1nc(Nc2ccc3c(c2)CC(=O)N3)ncc1C(F)(F)F)S(C)(=O)=O + CC(=O)Nc1cccc(-n2c(=O)n(C3CC3)c(=O)c3c(Nc4ccc(I)cc4F)n(C)c(=O)c(C)c32)c1 [Trametinib] (partner 0.02 µM)
Procedure, shortened: (§1)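 Lung cancer cell lines in 1536-well plates were dosed by pin tool the day after seeding, either with one drug alone or with a fixed anchor-drug dose plus five library-drug doses (not always all listed) in √10 steps. After 5 days, cells were fixed and their nuclei stained in one step (final 0.05% Triton X-100, 1% formaldehyde, 1 ug/ml Hoechst), then counted on 4× images. Relative viability is the nuclei count in treated wells divided by that in vehicle wells. Values are medians of duplicate plates.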

[2] = compound: CN(c1ncccc1CNc1nc(Nc2ccc3c(c2)CC(=O)N3)ncc1C(F)(F)F)S(C)(=O)=O + COc1cccc2cc(-c3nc([C@H]4CC[C@H](C(=O)O)CC4)n4ncnc(N)c34)[nH]c12 [OSI-027] (partner 0.5 µM)
Procedure, shortened: as §1

[3] = compound: CN(c1ncccc1CNc1nc(Nc2ccc3c(c2)CC(=O)N3)ncc1C(F)(F)F)S(C)(=O)=O + N=C(N)NC(=N)NCCc1ccccc1 [Phenformin] (partner 250 µM)
Procedure, shortened: as §1

[4] = compound: CN(c1ncccc1CNc1nc(Nc2ccc3c(c2)CC(=O)N3)ncc1C(F)(F)F)S(C)(=O)=O
Procedure, shortened: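 Only plates meeting two conditions passed: control CV below 25% and at least one doubling. Lung cancer cell lines, kept overnight at 37 °C in 1536-well plates, were pinned with five library-drug doses (not always all listed) √10 apart on vehicle-anchored plates and grown 5 days without medium change. A one-step fix, permeabilisation and Hoechst stain preceded 4× imaging and MetaXpress nuclear counting. Viability equals treated-well nuclei divided by vehicle-well nuclei, as the median over plates.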

| Cell Line | relative viability ([1]; first compound 0.01 µM) | relative viability ([1]; first compound 0.03162 µM) | relative viability ([1]; first compound 0.1 µM) | relative viability ([1]; first compound 0.3162 µM) | relative viability ([1]; first compound 1 µM) | relative viability ([2]; first compound 0.01 µM) | relative viability ([2]; first compound 0.03162 µM) | relative viability ([2]; first compound 0.1 µM) | relative viability ([2]; first compound 0.3162 µM) | relative viability ([2]; first compound 1 µM) | relative viability ([3]; first compound 0.01 µM) | relative viability ([3]; first compound 0.03162 µM) | relative viability ([3]; first compound 0.1 µM) | relative viability ([3]; first compound 0.3162 µM) | relative viability ([3]; first compound 1 µM) | relative viability ([4]; 0.01 µM) | relative viability ([4]; 0.03162 µM) | relative viability ([4]; 0.1 µM) | relative viability ([4]; 0.3162 µM) | relative viability ([4]; 1 µM) |
| --- | --- | --- | --- | --- | --- | --- | --- | --- | --- | --- | --- | --- | --- | --- | --- | --- | --- | --- | --- | --- |
| NCI-H441 | 0.457 | 0.461 | 0.402 | 0.336 | 0.403 | 0.76 | 0.725 | 0.596 | 0.77 | 0.518 | 0.926 | 0.859 | 0.805 | 0.864 | 0.787 | 1.09 | 1.15 | 0.901 | 1.22 | 0.767 |
| NCI-H460 | 0.108 | 0.139 | 0.2 | 0.185 | 0.129 | 0.666 | 0.964 | 0.691 | 0.705 | 0.665 | 0.599 | 0.75 | 0.499 | 0.484 | 0.495 | 1 | 1.1 | 0.979 | 1 | 1.02 |
| NCI-H520 | 0.714 | 0.666 | 0.646 | 0.7 | 0.705 | 0.339 | 0.331 | 0.244 | 0.321 | 0.344 | 0.601 | 0.777 | 0.57 | 0.678 | 0.552 | 1.04 | 1.2 | 1.03 | 1.17 | 1.18 |
| NCI-H596 | 0.932 | 0.779 | 0.559 | 0.781 | 0.728 | 0.698 | 0.799 | 0.664 | 0.731 | 0.669 | 0.807 | 0.745 | 0.657 | 0.611 | 0.763 | 0.977 | 0.917 | 1.02 | 0.886 | 0.94 |
| NCI-H647 | 0.582 | 0.594 | 0.459 | 0.463 | 0.414 | 0.656 | 0.76 | 0.683 | 0.62 | 0.592 | 0.483 | 0.689 | 0.616 | 0.579 | 0.401 | 0.979 | 1.26 | 1.02 | 0.889 | 0.886 |
| NCI-H650 | 1.02 | 1.01 | 0.994 | 1.02 | 0.88 | 0.401 | 0.555 | 0.408 | 0.455 | 0.465 | 0.492 | 0.464 | 0.396 | 0.393 | 0.441 | 1.03 | 1 | 0.825 | 0.905 | 0.802 |
| NCI-H661 | 0.549 | 0.729 | 0.577 | 0.615 | 0.608 | 0.69 | 0.668 | 0.641 | 0.774 | 0.784 | 0.285 | 0.286 | 0.289 | 0.277 | 0.294 | 1.08 | 1.05 | 0.89 | 0.988 | 0.968 |
| NCI-H727 | 0.386 | 0.364 | 0.404 | 0.424 | 0.333 | 0.782 | 0.75 | 0.649 | 0.59 | 0.537 | 0.626 | 0.655 | 0.389 | 0.616 | 0.444 | 1 | 0.949 | 0.87 | 1.02 | 0.79 |
| NCI-H838 | 0.534 | 0.695 | 0.501 | 0.421 | 0.329 | 0.492 | 0.413 | 0.396 | 0.394 | 0.413 | 0.604 | 0.671 | 0.575 | 0.504 | 0.396 | 1.01 | 1.03 | 0.979 | 0.903 | 0.808 |
| NCI-H1355 | 0.361 | 0.41 | 0.439 | 0.384 | 0.357 | 0.481 | 0.428 | 0.377 | 0.412 | 0.396 | 0.45 | 0.442 | 0.449 | 0.406 | 0.432 | 1.03 | 1.03 | 0.954 | 0.995 | 0.948 |
| NCI-H1395 | 0.979 | 1.07 | 1.06 | 1.14 | 1.02 | 0.657 | 0.606 | 0.671 | 0.738 | 0.721 | 0.455 | 0.463 | 0.459 | 0.454 | 0.417 | 0.94 | 0.977 | 0.812 | 1.01 | 0.988 |
| NCI-H1437 | 0.529 | 0.575 | 0.415 | 0.356 | 0.395 | 0.96 | 0.929 | 0.917 | 0.876 | 0.773 | 0.384 | 0.333 | 0.284 | 0.298 | 0.266 | 0.994 | 1.02 | 0.946 | 0.936 | 0.877 |
| NCI-H1650 | 0.647 | 0.587 | 0.582 | 0.57 | 0.483 | 0.64 | 0.727 | 0.701 | 0.612 | 0.645 | 0.481 | 0.53 | 0.519 | 0.436 | 0.409 | 0.924 | 0.961 | 0.947 | 0.904 | 0.886 |
| NCI-H1651 | 0.89 | 0.837 | 0.816 | 0.826 | 0.818 | 0.802 | 0.794 | 0.738 | 0.796 | 0.739 | 0.348 | 0.365 | 0.359 | 0.365 | 0.358 | 1.02 | 1.04 | 1 | 0.982 | 0.963 |

— the supplement of paper PMC10307832
